Measurements reported in patent publication US12338218B2, “Crystal form of benzimidazole-2-one compound, solvate thereof, crystal form of solvate thereof, and preparation method thereof” (MEDSHINE DISCOVERY INC., priority 2019, dated 2025).
Where two headings read alike, the source gives them in different places.

Experiments:
Type in all cases: physicochemical
[1] = Solid stability assay under accelerated condition (40° C./75% relative humidity, sealed)
Protocol: According to “Guidelines for Stability Assay of APIs and Preparations” (Chinese Pharmacopoeia 2015 Edition, Volume IV, General Principles 9001), crystal form A of compound 1 was assayed for stability under accelerated condition of high temperature and high humidity (40° C./75% relative humidity, sealed).
(§1) 1.5 g of crystal form A of compound 1 was weighed and placed in a double-layer low-density polyethylene bag. Each layer of low-density polyethylene bag was sealed by buckling, respectively, and then the double-layer low-density polyethylene bag was placed in an aluminum foil bag and heat-sealed. Samples were taken on the 1st, 2nd, 3rd and 6th months for assaying, and the assay results were compared with the initial assay results on day 0.

[2] = Hygroscopicity of crystal form A (dynamic vapor sorption)
Protocol: SEM Advantage-1 Dynamic Vapor Sorption Apparatus.
10-30 mg of crystal form A of compound 1 was weighed and placed in a DVS sample pan for assaying.

[3] = Solid stability assay under long-term condition (25° C./60% relative humidity, sealed)
Protocol: According to “Guidelines for Stability Assay of APIs and Preparations” (Chinese Pharmacopoeia 2015 Edition, Volume IV, General Principles 9001), crystal form A of compound 1 was assayed for stability under long-term condition (25° C./60% relative humidity, sealed).
as §1, with “the” for “the 1st, 2nd,”

[4] = Solid stability assay at high temperature, high humidity and strong light
Protocol: Method for Determining Content Disclosed Herein
Instrument model: Agilent 1260 high performance liquid chromatograph
Detailed parameters of chromatographic conditions were as follows:
Column temperature: 35° C.
Detection wavelength: 230 nm
Mobile phase A: 0.04% aqueous trifluoroacetic acid solution (V/V)
Mobile phase B: 100% acetonitrile
Diluent: acetonitrile: pure water=50:50 (V/V)
Probe Wash: acetonitrile: pure water=50:50 (V/V)
Gradient elution program: […]
According to “Guidelines for Stability Assay of APIs and Preparations” (Chinese Pharmacopoeia 2015 Edition, Volume IV, General Principles 9001), crystal form A of compound 1 was assayed for stability at high temperature (60° C., open), high humidity (room temperature/92.5% relative humidity, open) and strong light (5000±500 Lux, 90 μw/cm^2, sealed).
1.5 g of crystal form A of compound 1 was weighed, placed in an open watch glass, and spread into a thin layer. The samples placed under high temperature and high humidity conditions were placed in a desiccator for inspection, and samples were taken on the 5th, 10th, and 30th days for assaying. The assay results were compared with the initial assay results on day 0. The samples placed under strong light condition were covered with a quartz glass cover, and samples were taken on the 5th and 10th days for assaying. The assay results were compared with the initial assay results on day 0.

[5] = Stability assay of crystal form A in different solvents (XRPD after 2 weeks)
Protocol: 17 aliquots of crystal form A of compound 1 were weighed (about 15 mg per aliquot), and an appropriate amount of a single or mixed solvent in the Table below was added, respectively. The suspension was stirred at room temperature or 50° C. for 2 weeks. Solids were collected by centrifugation, and detected by XRPD for the crystal form status.

[6] = 40° C./75% relative humidity, sealed, Month 1
[7] = 40° C./75% relative humidity, sealed, Month 2
[8] = 40° C./75% relative humidity, sealed, Month 3
[9] = 40° C./75% relative humidity, sealed, Month 6
[10] = 25° C./60% relative humidity, sealed, Month 3
[11] = 25° C./60% relative humidity, sealed, Month 6
[12] = High humidity (room temperature/92.5% relative humidity, open), Day 5
[13] = High humidity (room temperature/92.5% relative humidity, open), Day 10
[14] = High humidity (room temperature/92.5% relative humidity, open), Day 30
[15] = High temperature (60° C., open), Day 5
[16] = High temperature (60° C., open), Day 10
[17] = High temperature (60° C., open), Day 30
[18] = Strong light (5000 ± 500 Lux, 90 μw/cm^2, sealed), Day 5
[19] = Strong light (5000 ± 500 Lux, 90 μw/cm^2, sealed), Day 10

Appearance [1, 6]: White
Content [1, 6]: 99.5%
Total impurity [1, 6]: 0.32%
Appearance [1, 7]: White
Content [1, 7]: 99.4%
Total impurity [1, 7]: 0.33%
Appearance [1, 8]: White
Content [1, 8]: 99.2%
Total impurity [1, 8]: 0.33%
Appearance [1, 9]: White
Content [1, 9]: 99.5%
Total impurity [1, 9]: 0.33%
Appearance ([1]; Day 0): White
Content ([1]; Day 0): 99.5%
Total impurity ([1]; Day 0): 0.33%
solid stability (in words) ([1]; accelerated condition of 40° C./75% relative humidity): good stability
hygroscopicity (in words) [2]: low hygroscopicity
hygroscopic weight gain (ΔW) ([2]; DVS, 25° C. and 80% RH): 0.05%
hygroscopicity (in words) ([2]; listed as Crystal form A of compound 1): no or almost no hygroscopicity
Appearance [3, 10]: White
Content [3, 10]: 99.0%
Total impurity [3, 10]: 0.34%
Appearance [3, 11]: White
Content [3, 11]: 99.5%
Total impurity [3, 11]: 0.33%
Appearance ([3]; Day 0): White
Content ([3]; Day 0): 99.5%
Total impurity ([3]; Day 0): 0.33%
solid stability (in words) ([3]; long-term condition of 25° C./60% relative humidity): good stability
Appearance ([4]; Day 0): White
Content ([4]; Day 0): 99.5%
Total impurity ([4]; Day 0): 0.33%
Appearance [4, 12]: White
Content [4, 12]: 101.1%
Total impurity [4, 12]: 0.32%
Appearance [4, 13]: White
Content [4, 13]: 100.3%
Total impurity [4, 13]: 0.32%
Appearance [4, 14]: White
Content [4, 14]: 99.5%
Total impurity [4, 14]: 0.33%
Appearance [4, 15]: White
Content [4, 15]: 101.3%
Total impurity [4, 15]: 0.32%
Appearance [4, 16]: White
Content [4, 16]: 100.3%
Total impurity [4, 16]: 0.32%
Appearance [4, 17]: White
Content [4, 17]: 99.2%
Total impurity [4, 17]: 0.33%
Appearance [4, 18]: White
Content [4, 18]: 100.4%
Total impurity [4, 18]: 0.33%
Appearance [4, 19]: White
Content [4, 19]: 100.7%
Total impurity [4, 19]: 0.33%
solid stability (in words) ([4]; high temperature, high humidity, or strong light condition): good stability
Status (after 2 weeks) ([5]; 1,4-Dioxane:n-heptane (1:1), 50° C.): Suspension
Status (after 2 weeks) ([5]; 2-Butanol:m-xylene (2:1), 50° C.): Suspension
Status (after 2 weeks) ([5]; 2-Methyltetrahydrofuran:n-octane (4:1), 50° C.): Suspension
Status (after 2 weeks) ([5]; Acetone:toluene (2:1), room temperature): Suspension
Status (after 2 weeks) ([5]; Acetonitrile:water (3:1), room temperature): Suspension
Status (after 2 weeks) ([5]; Dichloromethane:m-xylene (1:1), room temperature): Suspension
Status (after 2 weeks) ([5]; Dimethyl sulfoxide:water (2:1), 50° C.): Suspension
Status (after 2 weeks) ([5]; Ethanol:water (3:1), 50° C.): Suspension
Status (after 2 weeks) ([5]; Ethyl acetate:m-xylene (2:1), room temperature): Suspension
Status (after 2 weeks) ([5]; Isopropanol:water (85:5), room temperature): Suspension
Status (after 2 weeks) ([5]; Isopropanol:water (92:8), room temperature): Suspension
Status (after 2 weeks) ([5]; Isopropanol:water (95:5), room temperature): Suspension
Status (after 2 weeks) ([5]; Isopropanol:water (98:2), room temperature): Suspension
Status (after 2 weeks) ([5]; Methyl isobutyl ketone:n-hexane (2:1), 50° C.): Suspension
Status (after 2 weeks) ([5]; Methyl tert-butyl ether, room temperature): Suspension
Status (after 2 weeks) ([5]; Toluene, room temperature): Suspension
Status (after 2 weeks) ([5]; Water, room temperature): Suspension
stability in solvents (in words) ([5]; methyl tert-butyl ether, toluene, water, mixed solvent of alcohol and water): good stability
SMILES: CCOc1cc([C@@H](CS(C)(=O)=O)n2c(=O)[nH]c3cc(F)ccc32)ccc1OC [crystal form A of compound 1]
